Test results: PMC11643962, “Exploring 4,7-Disubstituted Pyrimido[4,5-d]pyrimidines as Antiviral and Anticancer Agents” (Molecules, 2024)

Assays:
[1] = tested on: HCoV-OC43; assay: Antiviral CPE reduction assay, HCoV-OC43 in HEL299 cells; format: cell-based, human coronavirus OC43; details: Betacoronavirus 1, OC43, HEL 299, MTS, mean ± SD of two or three independent experiments
[2] = tested on: DND-41 (acute lymphoblastic leukemia); assay: MTS proliferation assay, DND-41; details: Homo sapiens, DND41, 72 h, read-out: Anti-Proliferative Activity (IC50) DND-41
[3] = tested on: herpes simplex virus-1 (HSV-1 KOS); assay: Antiviral CPE reduction assay, HSV-1 KOS in HEL299 cells; format: cell-based; details: Human alphaherpesvirus 1, HEL 299, MTS, mean ± SD, no unit printed on the supplement page (Table 2 of the same screen is in µM)
[4] = tested on: influenza A/H1N1 (A/Ned/378/05); assay: Antiviral CPE reduction assay, influenza A/H1N1 in MDCK cells; format: cell-based, influenza A virus; details: Influenza A virus, H1N1; MDCK cells; CPE reduction, MTS; mean ± SD of two or three independent experiments; read-out: Antiviral Activity (EC50) Influenza H1N1
[5] = tested on: HCoV-229E; assay: Antiviral CPE reduction assay, HCoV-229E in HEL299 cells; format: cell-based, human coronavirus 229E; details: Human coronavirus 229E, HEL 299, MTS, mean ± SD of two or three independent experiments
[6] = tested on: Zika virus (ZikV mr766); assay: Antiviral CPE reduction assay, Zika virus mr766 in VeroE6 cells; format: cell-based; details: Zika virus, Vero C1008, MTS, mean ± SD, no unit printed on the supplement page (Table 2 of the same screen is in µM)
[7] = in vitro; details: African green monkey
[8] = tested on: influenza A/H3N2 (A/HK/7/87); assay: Antiviral CPE reduction assay, influenza A/H3N2 in MDCK cells; format: cell-based, influenza A virus; details: Influenza A virus, H3N2; MDCK cells; CPE reduction, MTS; mean ± SD of two or three independent experiments; read-out: Antiviral Activity (EC50) Influenza H3N2
[9] = tested on: LN-229 (glioblastoma); assay: MTS proliferation assay, LN-229; details: Homo sapiens, LN-229, 72 h, read-out: Anti-Proliferative Activity (IC50) LN-229
[10] = in vitro; details: human
[11] = in vitro; details: dog
[12] = in vitro; details: human; remark: listed apart in the source
[13] = tested on: influenza B (B/Ned/537/05); assay: Antiviral CPE reduction assay, influenza B in MDCK cells; format: cell-based, influenza B virus; details: Influenza B virus, MDCK, read-out: Antiviral Activity (EC50) Influenza B
[14] = tested on: HL-60 (acute myeloid leukemia); assay: MTS proliferation assay, HL-60; details: Homo sapiens, HL-60, 72 h, read-out: Anti-Proliferative Activity (IC50) HL-60
[15] = tested on: respiratory syncytial virus A (RSV A Long); assay: Antiviral CPE reduction assay, RSV A Long in Hep2 cells; format: cell-based; details: human respiratory syncytial virus, HEp-2; Hep2 cells; CPE reduction, MTS; mean ± SD of two or three independent experiments; read-out: Antiviral Activity (EC50) RSV A Long
[16] = tested on: variety of viruses (HSV-1, influenza viruses, yellow fever virus, Zika virus, RSV, HCoV-229E, HCoV-OC43, HCoV-NL63); format: cell-based; details: CPE reduction assays, virus panel
[17] = tested on: yellow fever virus (YFV 17D); assay: microbe, parasite or virus in culture; format: cell-based; details: Yellow fever virus, Vero C1008, read-out: Antiviral activity (EC50) YFV 17D
[18] = in vitro; details: human; remark: listed apart in the source
[19] = tested on: Z-138 (non-Hodgkin lymphoma); assay: MTS proliferation assay, Z-138; details: Homo sapiens, Z-138, 72 h, read-out: Anti-Proliferative Activity (IC50) Z-138
[20] = tested on: Capan-1 (pancreatic adenocarcinoma); assay: MTS proliferation assay, Capan-1; details: Homo sapiens, CAPAN-1, 72 h, read-out: Anti-Proliferative Activity (IC50) Capan-1
[21] = tested on: K-562 (chronic myeloid leukemia); assay: MTS proliferation assay, K-562; details: Homo sapiens, K562, 72 h, read-out: Anti-Proliferative Activity (IC50) K-562
[22] = tested on: HCoV-NL63; assay: Antiviral CPE reduction assay, HCoV-NL63 in Hep3B cells; format: cell-based, human coronavirus NL63; details: Human coronavirus NL63, MTS, mean ± SD of two or three independent experiments
[23] = tested on: NCI-H460 (lung carcinoma); assay: MTS proliferation assay, NCI-H460; details: Homo sapiens, NCI-H460, 72 h, read-out: Anti-Proliferative Activity (IC50) NCI-H460
[24] = tested on: HCT-116 (colorectal carcinoma); assay: MTS proliferation assay, HCT-116; details: Homo sapiens, HCT-116, 72 h, read-out: Anti-Proliferative Activity (IC50) HCT-116

| Structure (SMILES) | EC50 [1] [µM] | IC50 [2] [µM] | EC50 [3] [µM] | EC50 [4] [µM] | EC50 [5] [µM] | EC50 [6] [µM] | CC50 [7] [µM] | EC50 [8] [µM] | IC50 [9] [µM] | CC50 [11] [µM] | EC50 [13] [µM] | melting point [°C] | IC50 [14] [µM] | EC50 [15] [µM] | EC50 [17] [µM] | IC50 [19] [µM] | IC50 [20] [µM] | IC50 [21] [µM] | EC50 [22] [µM] | IC50 [23] [µM] | other results |
| --- | --- | --- | --- | --- | --- | --- | --- | --- | --- | --- | --- | --- | --- | --- | --- | --- | --- | --- | --- | --- | --- |
| c1cc2c(c(Nc3ncnc4nc(NC5CC5)ncc34)c1)CCCC2 [Compound 7c, N^2-cyclopropyl-N^5-(5,6,7,8-tetrahydronaphthalen-1-yl)pyrimido[4,5-d]pyrimidine-2,5-diamine] | > 50 | > 100 | > 50 | > 50 | > 50 | > 50 | > 50 | > 50 | > 100 | > 50 | > 50 | 189 | > 100 | > 50 | > 50 | > 100 | > 100 | > 100 | > 50 | > 100 | CC50 [10]: > 50 µM; CC50 [12]: > 50 µM; antiviral activity (in words) [16]: inactive; CC50 [18]: > 50 µM; IC50 [24]: > 100 µM |
| CN1CCN(c2ncc3c(Nc4cccc5c4CCC5)ncnc3n2)CC1 [Compound 7d, N-(2,3-dihydro-1H-inden-4-yl)-7-(4-methylpiperazin-1-yl)pyrimido[4,5-d]pyrimidin-4-amine] | > 50 | 80.6 ± 10.2 | > 50 | > 50 | > 50 | > 50 | > 50 | > 50 | > 100 | > 50 | > 50 | > 250 | ≥ 71 | > 50 | > 50 | 56.5 ± 1.2 | > 100 | 61.3 ± 2.4 | > 50 | > 100 | CC50 [10]: > 50 µM; CC50 [12]: > 50 µM; antiviral activity (in words) [16]: inactive; CC50 [18]: > 50 µM; IC50 [24]: > 100 µM |
| C#Cc1cccc(Nc2ncnc3nc(N4CCN(C)CC4)ncc23)c1 [Compound 7h, N-(3-ethynylphenyl)-7-(4-methylpiperazin-1-yl)pyrimido[4,5-d]pyrimidin-4-amine] | > 50 | 66.5 ± 0.8 | > 50 | > 50 | > 50 | > 50 | > 50 | > 50 | 97.1 ± 1.5 | > 50 | > 50 | 290 | 79.1 ± 4.6 | > 50 | > 50 | 52.6 ± 1.4 | > 100 | 52.3 ± 4.4 | > 50 | > 100 | antiviral activity (in words) [16]: inactive; IC50 [24]: > 100 µM |
| CN1CCN(c2ncc3c(Nc4cccnc4)ncnc3n2)CC1 [Compound 7k, 7-(4-methylpiperazin-1-yl)-N-(pyridin-3-yl)pyrimido[4,5-d]pyrimidin-4-amine] | > 50 | > 100 | > 50 | > 50 | > 50 | > 50 | > 50 | > 50 | > 100 | > 50 | > 50 | > 300 | > 100 | > 50 | > 50 | > 100 | > 100 | > 100 | > 50 | > 100 | CC50 [10]: > 50 µM; CC50 [12]: > 50 µM; antiviral activity (in words) [16]: inactive; CC50 [18]: > 50 µM; IC50 [24]: > 100 µM |
| c1cncc(Nc2ncnc3nc(NC4CC4)ncc23)c1 [Compound 7m, N^2-cyclopropyl-N^5-(pyridin-3-yl)pyrimido[4,5-d]pyrimidine-2,5-diamine] | > 50 | > 100 | > 50 | > 50 | > 50 | > 50 | > 50 | > 50 | > 100 | > 50 | > 50 | 243 | > 100 | > 50 | > 50 | > 100 | > 100 | > 100 | > 50 | > 100 | CC50 [10]: > 50 µM; CC50 [12]: > 50 µM; CC50 [18]: > 50 µM; IC50 [24]: > 100 µM |
